Experimental data as given in PubChem BioAssay AID330 (DTP/NCI, 2004).
Toxic doses and inconclusive results are not listed.

Test system: P388 leukemia ip, CD2F1 mice, survival T/C
Test: NCI In Vivo Anticancer Drug Screen. Data for tumor model P388 Leukemia (intraperitoneal) in CD2F1 (CDF1) mice
Details: endpoint: median survival time, higher = longer survival
Procedure, shortened: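 Mice carrying the transplanted tumor received test compound or vehicle. Survival was recorded in each group, and the value is the treated-group measurement divided by that of the vehicle-treated control group.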

[1] = dose: 60.0 mg/kg/injection, schedule: Q01DX005 (ip), vehicle: saline with Tween-80
[2] = dose: 120.0 mg/kg/injection, schedule: Q01DX005 (ip), vehicle: saline with Tween-80
[3] = dose: 240.0 mg/kg/injection, schedule: Q01DX005 (ip), vehicle: saline with Tween-80
[4] = dose: 12.5 mg/kg/injection, schedule: Q04DX003 (ip), vehicle: saline with Tween-80
[5] = dose: 50.0 mg/kg/injection, schedule: Q04DX003 (ip), vehicle: saline with Tween-80
[6] = dose: 100.0 mg/kg/injection, schedule: Q04DX003 (ip), vehicle: saline with Tween-80
[7] = dose: 200.0 mg/kg/injection, schedule: Q04DX003 (ip), vehicle: saline with Tween-80

Compound: CCOC(=O)C1=C(C(=O)c2ccccc2)C(c2cccc([N+](=O)[O-])c2)C(C(=O)c2ccccc2)=C(C(=O)OCC)N1
- T/C (dose: 30.0 mg/kg/injection, schedule: Q01DX005 (ip), vehicle: saline with Tween-80): 104 % of control
- T/C [1]: 104 % of control
- T/C [2]: 104 % of control
- T/C [3]: 104 % of control

Compound: Cc1nc(Br)c(C(O)c2ccccc2)n1C (centres undefined)
- T/C [1]: 103 % of control
- T/C [2]: 92 % of control
- T/C [3]: 97 % of control

Compound: NC(=S)N/N=C/c1ccncn1
- T/C (dose: 6.25 mg/kg/injection, schedule: Q01DX009 (ip), vehicle: Klucel (hydroxypropylcellulose) (HPC)): 93 % of control
- T/C (dose: 6.25 mg/kg/injection, schedule: Q04DX003 (ip), vehicle: Klucel (hydroxypropylcellulose) (HPC)): 111 % of control
- T/C (dose: 12.5 mg/kg/injection, schedule: Q01DX009 (ip), vehicle: Klucel (hydroxypropylcellulose) (HPC)): 92 % of control
- T/C (dose: 12.5 mg/kg/injection, schedule: Q04DX003 (ip), vehicle: Klucel (hydroxypropylcellulose) (HPC)): 101 % of control
- T/C [4]: 123 % of control
- T/C (dose: 25.0 mg/kg/injection, schedule: Q01DX009 (ip), vehicle: Klucel (hydroxypropylcellulose) (HPC)): 100 % of control
- T/C (dose: 25.0 mg/kg/injection, schedule: Q04DX003 (ip), vehicle: Klucel (hydroxypropylcellulose) (HPC)): 111 % of control
- T/C (dose: 50.0 mg/kg/injection, schedule: Q04DX003 (ip), vehicle: Klucel (hydroxypropylcellulose) (HPC)): 112 % of control

Compound: S=C1NCCOc2ccccc21
- T/C (dose: 60.0 mg/kg/injection, schedule: Q01DX005 (ip), vehicle: Klucel (hydroxypropylcellulose) (HPC)): 100 % of control
- T/C (dose: 120.0 mg/kg/injection, schedule: Q01DX005 (ip), vehicle: Klucel (hydroxypropylcellulose) (HPC)): 100 % of control

Compound: CCCCC(CC)(CCN)CCCC
- T/C (dose: 5.0 mg/kg/injection, schedule: Q01DX009 (ip), vehicle: suspension in saline): 107 % of control
- T/C (dose: 10.0 mg/kg/injection, schedule: Q01DX009 (ip), vehicle: suspension in saline): 103 % of control
- T/C (dose: 20.0 mg/kg/injection, schedule: Q01DX009 (ip), vehicle: suspension in saline): 90 % of control

Compound: CC(C)(C)N1CC(C(=O)c2ccccc2)C1c1ccccc1 (centres undefined)
- T/C [5]: 100 % of control
- T/C [6]: 98 % of control
- T/C [7]: 97 % of control
- T/C (dose: 400.0 mg/kg/injection, schedule: Q04DX003 (ip), vehicle: saline with Tween-80): 97 % of control

Compound: CCC[CH2][Sn]([CH2]CCC)([O]C(=O)/C=C/c1ccccc1)[O]C(=O)/C=C/c1ccccc1
- T/C (dose: 1.56 mg/kg/injection, schedule: Q04DX003 (ip), vehicle: DMSO): 87 % of control
- T/C (dose: 3.12 mg/kg/injection, schedule: Q04DX003 (ip), vehicle: DMSO): 89 % of control
- T/C (dose: 6.25 mg/kg/injection, schedule: Q04DX003 (ip), vehicle: DMSO): 89 % of control
- T/C [4]: 117 % of control

Compound: C=CCN(CC=C)P(=O)(N1CC1C)N1CC1C (centres undefined)
- T/C (dose: 1.65 mg/kg/injection, schedule: Q01DX009 (ip), vehicle: water): 166 % of control
- T/C (dose: 2.5 mg/kg/injection, schedule: Q01DX009 (ip), vehicle: water): 157 % of control
- T/C (dose: 3.75 mg/kg/injection, schedule: Q01DX009 (ip), vehicle: water): 118 % of control
- T/C (dose: 5.0 mg/kg/injection, schedule: Q01DX009 (ip), vehicle: saline): 97 % of control

Compound: O=C(O)CSc1nc2ccc(N3C(=O)C4C5C=CC(C5)C4C3=O)cc2s1 (centres undefined)
- T/C (dose: 50.0 mg/kg/injection, schedule: Q01DX009 (ip), vehicle: Klucel (hydroxypropylcellulose) (HPC)): 90 % of control
- T/C (dose: 100.0 mg/kg/injection, schedule: Q01DX009 (ip), vehicle: Klucel (hydroxypropylcellulose) (HPC)): 105 % of control
- T/C (dose: 200.0 mg/kg/injection, schedule: Q01DX009 (ip), vehicle: Klucel (hydroxypropylcellulose) (HPC)): 99 % of control

Compound: Cn1c2ccccc2c(=Nc2ccc(S(N)(=O)=O)cc2)c2ccccc21
- T/C (dose: 100.0 mg/kg/injection, schedule: Q01DX005 (ip), vehicle: saline with Tween-80): 97 % of control

Compound: OC1(C2CCCC2)C2C=CC1C1CCCCCCC12 (centres undefined)
- T/C (dose: 100.0 mg/kg/injection, schedule: Q04DX002 (ip), vehicle: saline with Tween-80): 100 % of control
- T/C (dose: 200.0 mg/kg/injection, schedule: Q04DX002 (ip), vehicle: saline with Tween-80): 100 % of control
- T/C (dose: 400.0 mg/kg/injection, schedule: Q04DX002 (ip), vehicle: saline with Tween-80): 97 % of control

Compound: ClC=P(c1ccccc1)(c1ccccc1)c1ccccc1
- T/C [5]: 104 % of control
- T/C [6]: 109 % of control
- T/C [7]: 104 % of control

Compound: NN/C(N)=N/S(=O)(=O)c1ccccc1
- T/C (dose: 50.0 mg/kg/injection, schedule: Q01DX005 (ip), vehicle: Klucel (hydroxypropylcellulose) (HPC)): 107 % of control
- T/C (dose: 100.0 mg/kg/injection, schedule: Q01DX005 (ip), vehicle: Klucel (hydroxypropylcellulose) (HPC)): 102 % of control
